# Source: US11040052B2, “Methods and pharmaceutical compositions for modulating autophagy in a subject in need thereof” (INSERM (INSTITUT NATIONAL DE LA SANTE ET DE LA RECHERCHE …, priority 2013, dated 2021)
# What was measured:
# [1] = tested on: U2OS cells stably expressing GFP-LC3; test: Autophagy in cultured cells: GFP-LC3 puncta formation and LC3 lipidation with or without bafilomycin A1; type: cell-based, human; details: for autophagic flux (GFP-LC3 puncta formation, LC3 lipidation): cells kept in rich medium, presence and absence of BafA1; for statin-induced autophagy upon supplementation: 12 hours, Simvastatin and Mevastatin
# Protocol: U2OS, HeLa or H4 cells stably expressing GFP-LC3 were seeded in 96-well imaging plates (BD Falcon, Sparks, USA) 24 h before stimulation. Cells were treated with the indicated agents for 4 h. […] Images were analyzed for the presence of GFP-LC3 puncta in the cytoplasm by means of the BD Attovision software (BD Imaging Systems). Cell surfaces were segmented and divided into cytoplasmic and nuclear regions according to manufacturer standard proceedings. RB 2×2 and Marr-Hildreth algorithms were used to recognize cytoplasmic GFP-LC3 positive dots. Statistical analyses were implemented on the R software (http://www.r-project.org/). For quantitative analyses of protein acetylation, cell surfaces were segmented into cytoplasm and nuclei regions, and staining intensity of each individual cell was measured for statistical analysis.
# Membranes were then sliced in different parts according to the molecular weight of the protein of interest to allow simultaneous detection of different antigens within the same experiment. Unspecific binding sites were saturated by incubating membranes for 1 h in 0.05% Tween 20 (v:v in TBS) supplemented with 5% non-fat powdered milk (w:v in TBS), followed by the overnight incubation with primary antibodies specific for acetylated-lysine, LC3, phospho-AMPK (Thr172), AMPK, phospho-ribosomal protein S6 kinase (Thr421/Ser424), ribosomal protein S6 kinase, or STQM/p62 (Santa Cruz Biotechnology). Development was performed with appropriate horseradish peroxidase (HRP)-labeled secondary antibodies (Southern Biotech, Birmingham, USA) plus the SuperSignal West Pico chemoluminescent substrate (Thermo Scientific-Pierce). An anti-glyceraldehyde-3-phosphate dehydrogenase antibody (Chemicon International, Temecula, USA) was used to control equal loading of lanes.
# For immunoblotting, protein extracts obtained by cellular lysis via RIPA buffer were run on 4-12% Bis-Tris acrylamide (Invitrogen) and electrotransferred to […] PVDF membranes (Biorad, USA). Unspecific binding sites were saturated by incubating membranes for 1 h in 0.05% Tween 20 (v:v in TBS) supplemented with 5% non-fat powdered milk (w:v in TBS), followed by an overnight incubation with primary antibodies specific for, LC3, phospho-AMPK (Thr172), AMPK, phosphor-ACC (Ser79), ACC, phospho-ribosomal protein S6 kinase (Thr421/Ser424), ribosomal protein S6 kinase, or SQSTM/p62 (Abnova). Membranes were opportunely cut in order to allow simultaneous detection of different molecular weight proteins. Development was performed with horseradish peroxidase (HRP)-labeled secondary antibodies (Southern Biotech, Birmingham, USA) plus the SuperSignal West Pico chemo luminescent substrate (Thermo Scientific-Pierce). An anti-glyceraldehyde-3-phosphate dehydrogenase antibody (Abcam) and anti-Actin antibody (Abcam) were used to ensure equal loading of lanes. Quantification was performed by densitometry by means of Image J software.
# U2OS and H4 cells stably expressing GFP-LC3 were seeded in 96-well or 384-well imaging plates (BD Falcon, Sparks, USA). 24 h before stimulation, ells were treated with the indicated agents for 6 hours in absence of lysososomal ATPase inhibitors and for 3 hours in presence of Bafilomycin A1. […] Images were analyzed for the detection of GFP-LC3 puncta in the cytoplasm by means of the BD Attovision software (BD Imaging Systems. Cellular regions of interest, cytoplasm and nucleus, were defined and segmented according to standard proceedings. RB 2×2 and Marr-Hildreth algorithms were employed to allow the detection of GFP LC3 puncta. Statistical analyses were conducted using the R and Prism softwares (http://www.r-project.org/). For quantitative analyses of protein acetylation, cell surfaces were segmented intocytoplasmic and nucleic regions, and staining intensity of each individual cell was measured for statistical analysis.
# AcCoA levels = test: Targeted analysis of AcCoA levels in cultured cells (HPLC-MS); type: cell-based, human; details: cells kept in rich medium
# Protocol: Cells were trypsinized, pelleted at 1000 rpm for 4 min, washed with PBS and pelleted again at 1000 rpm for 4 min. Cells were then resuspended in 5 ml of ice-cold hyposmotic buffer and keep on ice for 5 min. Cells were broken to release nuclei using a pre-chilled Dounce homogenizer (20 strokes with a tight pestle) and then were then centrifuged at 228 g.
# For in vitro experiments, cell pellets were resuspended in 300 μL of water with HEPES and EDTA (pH 7.4) at 1 mM containing internal standard acetylcoenzyme A (2-C13) at 1 mg/L, vortexed and heated at 100° C. for 1 min. Samples were incubated in liquid nitrogen for 1 min and thawed at room temperature two times. They were let for 1 h at −20° C. and centrifuged at 4° C. during 15 min at 13,000 g. Supernatants were transferred in HPLC vials and injected in HPLC/MS or kept at −80° C. until injection. For in vivo experiments, frozen tissues were placed in ice-cold homogenization tubes containing ceramic beads. Five μL of ice-cold methanol/water (80/20; v/v) were added for 1 mg of tissue. Tissues were homogenized two times for 20 s at 5,500 rpm using Precellys 24 tissue homogenator (Bertin Technologies, Montigny-le-Bretonneux, France). Samples were placed 10 min on ice. Next they were centrifuged at 4° C. during 15 min at 13,000 g. Supernatants were transferred in HPLC vials and injected in HPLC-MS system or kept at −80° C. until injection.
# Targeted analyses were performed on Rapid Resolution Liquid Chromatography (RRLC) 1200SL system (Agilent Technologies, Waldbronn, Germany) coupled to a Triple Quadruple QQQ 6410 mass spectrometer (Agilent Technologies). RRLC analysis was done on 150×2.1 mm, 3.5 μm Eclipse Plus SB-Aq column with a pre-column 30 mm×2.1 mm 3.5 μm Eclipse plus (Agilent Technologies) with water containing 10 mmol/L of ammonium acetate and 0.01% of acetic acid in channel A and acetonitrile in channel B in gradient mode at a flow rate of 0.3 mL·min^−1: t=0 min 2% B; t=9 min 95% B; t=11 min 95% B; re-equilibration time of 3 min. Mass spectrometer analysis was done in positive electrospray ionization mode at +4 kV on the QQQ system operating in MRM mode. MRM transitions were optimized with standard of AcCoA and AcCoA A 2-C^13 with direct infusion. Two transitions were recorded for each compound; • AcCoA 810>303 CE (collision energy) 28V; fragmentor 180V • 810>428 CE 20V • AcCoA 2-C13 812>305 CE 28V; fragmentor 180V • 812>428 CE 24V […]
# MCA205 tumor = test: Growth of transplantable tumors with chemotherapy; type: in vivo, mice; details: for tumor growth, combined with MTX: immunocompetent wild type mice, agent given before and with mitoxanthrone
# Protocol: C57BL/6 mice (Charles River Laboratory, Lentilly, France) were bred and maintained according to both the FELASA and the Animal Experimental Ethics Committee Guidelines (Val de Marne, France). Mice were housed in a temperature-controlled environment with 12 h light/dark cycles and received food and water ad libitum. For HC-related experiments, mice were injected intraperitoneally with a single 100 mg/kg dose and 6 h later were sacrificed and tissues were immediately frozen in liquid nitrogen. For DCA- and DMKG-related experiments, mice were subjected to 24 h starvation and injected intraperitoneally each 8 h with a 100 mg/kg of either DCA or DMKG solution prepared in PBS. After 24 h of starvation, mice were sacrificed and tissues were immediately frozen in liquid nitrogen after extraction and homogenized two cycles for 20 s at 5,500 rpm using Precellys 24 tissue homogenator (Bertin Technologies, Montigny-le-Bretonneux, France) in a 20 mM Tris buffer (pH 7.4) containing 150 mM NaCl, 1% Triton X-100, 10 mM EDTA and Complete® protease inhibitor cocktail (Roche Applied Science). Tissue extracts were then centrifuged at 12,000 g at 4° C. and supernatants were collected. Protein concentration in the supernatants was evaluated by the bicinchoninic acid technique (BCA protein assay kit, Pierce Biotechnology, Rockford, Ill.). For hydroxycitrate-related weight-loss experiments, autophagy-deficient Atg4b^−/− mice were used. Atg4b^−/− mice have been previously described (Mariño et al., 2010). For HC-, spermidine-, and resveratrol-related experiments (tumour growth) mice were intraperitoneally injected with respectively 100 mg/kg, 50 mg/kg and 100 mg/kg doses at day 8 and day 9. At day 9, mice were intraperitoneally injected with 2 mg/kg single dose of Mitoxanthrone. For starvation related experiment (tumour growth) mice were treated as previously described (Fabrizio et. al., 2010).
# Six weeks old female C57BL/6, Balb/c and nude athymic mice (Harlan Laboratory, Gannat, France) were bred and maintained according to both the FELASA and the Animal Experimental Inserm Ethics Committee Guidelines (project: 2012-69). Mice were housed in a temperature-controlled environment with 12 h light/dark cycles and received food and water ad libitum. For tumor growth experiments, procedures adopted are described as follows: 3×10^5 tumor cells were subcutaneously inoculated; when tumors became palpable (day −1 before chemotherapy), mice were first intraperitoneally injected with 100 mg/kg Potassium Hydroxycitrate, 10 mg/kg Acetylsalicylic Acid, 30 mg/kg SB204990, 30 mg/kg c646, 5 mg/kg Rapamycin, 25 mg/kg Resveratrol, 50 mg/kg Spermidine. At day 0, mice were intraperitoneally injected with the abovementioned compounds and with 5.17 mg/Kg Mitoxanthrone or 5 mg/kg Oxaliplatin. Tumor size was measured every two days. For starvation experiments, mice underwent 48 hour fasting followed by intreperitoneal injection of chemotherapeutics. For autophagy induction study, 6 hours after CRMs administration, mice were sacrificed and tissues were snap-frozen in liquid nitrogen after extraction and homogenized two cycles for 20 s at 5,500 rpm using Precellys 24 tissue homogenator (Bertin Technologies, Montigny-le-Bretonneux, France) in a 20 mM Tris buffer (pH 7.4) containing 150 mM NaCl, 1% Triton X-100, 10 mM EDTA and Complete® protease inhibitor cocktail (Roche Applied Science, Penzberg, Germany). Tissue extracts were then centrifuged at 12,000 g at 4° C. and supernatants were collected. Protein concentration in the supernatants was evaluated by the bicinchoninic acid technique (BCA protein assay kit, Pierce Biotechnology, Rockford, US.
compound,measurement,setting,value
"C1CCC(C(CC2CCCCN2)C2CCCCC2)CC1 (centres unmarked) [PHX, perhexiline]","autophagic flux (GFP-LC3 puncta formation, LC3 lipidation)",[1],induced signs of autophagy
same,AcCoA levels,AcCoA levels,reduced AcCoA cellular levels
COc1cc(/C=C/C(=O)CC(=O)/C=C/c2ccc(O)c(OC)c2)ccc1O [curcumin],"autophagic flux (GFP-LC3 puncta formation, LC3 lipidation)",[1],marked increase in GFP-LC3 puncta
CC(O)(CCO)CC(=O)O (centres unmarked) [mevalonate],statin-induced autophagy upon supplementation,[1],only suppresses statin-induced autophagy
same,statin-induced autophagy upon supplementation,[1]; listed as Mevalonate,reverts statins-induced
"CCCCCCCCCCCCCCCc1cccc(O)c1C(=O)O [anacardic acid, 6-pentadecylsalicylic acid]","autophagic flux (GFP-LC3 puncta formation, LC3 lipidation)",[1],marked increase in GFP-LC3 puncta
"O=C(O)C[C@]1(O)C[C@H](CCCCCCc2ccc(Cl)cc2Cl)OC1=O (relative stereo) [SB-204990, (3R,5S)-rel-5-[6-(2,4-Dichlorophenyl)hexyl]tetrahydro-3-hydroxy-2-oxo-3-furanacetic acid]","tumor growth, combined with MTX",MCA205 tumor,HC could be replaced
same,"tumor growth, combined with MTX",MCA205 tumor; listed as SB204990,can enhance chemotherapy efficacy
same,"tumor growth, combined with MTX, immunodeficient mice",MCA205 tumor; nu/nu (nude athymic) mice,failed
same,"autophagic flux (GFP-LC3 puncta formation, LC3 lipidation)",[1],stimulated autophagic flux in cultured cancer cells
same,"autophagic flux (GFP-LC3 puncta formation, LC3 lipidation)",[1]; listed as SB204990,induce autophagic flux
CC1COC(=O)C1 (centres unmarked) [3-methylbutyrolactone],"autophagic flux (GFP-LC3 puncta formation, LC3 lipidation)",[1],marked increase in GFP-LC3 puncta
"COc1ccc(-c2ccccc2)cc1NS(=O)(=O)c1cc(Cl)cc(Cl)c1O [BMS-303141, 3 5-Dichloro-2-hydroxy-N-(4-methoxy[1,1′-biphenyl]-3-yl)-benzenesulfonamide]","autophagic flux (GFP-LC3 puncta formation, LC3 lipidation)",[1],stimulated autophagic flux in cultured cancer cells
same,"autophagic flux (GFP-LC3 puncta formation, LC3 lipidation)",[1]; listed as BMS303141,induce autophagic flux
